Measurements as given in US7282512B2, “Cycloalkyl ketoamides derivatives useful as cathepsin K inhibitors” (SmithKline Beecham Corporation, priority 2002, dated 2007).

Columns and labels:
Format in all cases: biochemical
[1] = target: human cathepsin V (Homo sapiens, UniProt O60911); assay: cathepsin V inhibition assay, fluorogenic substrate Cbz-Phe-Arg-AMC; details: Table 2; human recombinant enzyme, 2 μM substrate; read-out: hCat V Ki
Experimental: (§1) All assays for cathepsin K were carried out with human and rat recombinant enzyme. Assays for cathepsins S & V were also carried out with human recombinant enzyme. Assays for human cathepsins B, H, and L were carried out with enzyme, purchased from Athens Research and Technology, Inc., prepared from human liver tissue. Standard assay conditions for the determination of kinetic constants used a fluorogenic peptide substrate, typically (5S,8S)-13-amino-5-benzyl-13-imino-3-methylene-N-(4-methyl-2-oxo-2H-chromen-7-yl)-6-oxo-1-phenyl-2-oxa-4,7,12-triazatridecane-8-carboxamide (Cbz-Phe-Arg-AMC), and were determined in 100 mM sodium acetate at pH 5.5 containing 10 mM dithiothreitol and 120 mM sodium chloride. A stock substrate solution of Cbz-Phe-Arg-AMC was prepared at a concentration of 50 mM in dimethyl sulfoxide. This substrate was diluted into the assay for a final substrate concentration of 10 μM in the rat cathepsin K, human cathepsin K, and human cathepsin B assays; a final substrate concentration of 5 μM in the human cathepsin L assay; and a final substrate concentration of 2 μM in the human cathepsin V assay.
(§2) All assays contained 10% dimethyl sulfoxide. […] All assays were conducted at 30° C. Product fluorescence (excitation at 360 nm; emission at 440 nm, (except cathepsin H which used excitation at 340 nm; emission at 420 nm)) was monitored with a PerSeptive Biosystems Cytofluor II fluorescence plate reader. Product progress curves were generated over 2.3 h monitoring the formation of 7-amino-4-methylcoumarin product (or β-naphthalamide for cathepsin H).
(§3) Potential inhibitors were evaluated using the progress curve method. […] For those compounds whose progress curves were linear, the enzymatic activity (RATE) was plotted against the concentration of test compound, including inhibitor concentration of zero ([I]=0), and the IC50 determined from a fit of equation 1 to the data, RATE=Vmax/(1+([I]/IC50)) (1) where Vmax is the best fit estimate of the maximal enzymatic activity. Ki values were calculated from IC50 values using equation 2 assuming a competitive model.

[2] = target: human cathepsin S (Homo sapiens, UniProt P25774); assay: cathepsin S inhibition assay, fluorogenic substrate Cbz-Val-Val-Arg-AMC; details: Table 2; human recombinant enzyme, 10 μM substrate; read-out: hCat S Ki
Experimental: as §1, with “assay. […]” for “assay.”
All assays contained 10% dimethyl sulfoxide. […] Product fluorescence (excitation at 360 nm; emission at 440 nm, (except cathepsin H which used excitation at 340 nm; emission at 420 nm)) was monitored with a PerSeptive Biosystems Cytofluor II fluorescence plate reader. […]
as §3

[3] = target: human cathepsin B (Homo sapiens, UniProt P07858); assay: cathepsin B inhibition assay, fluorogenic substrate Cbz-Phe-Arg-AMC; details: Table 2; enzyme from human liver tissue, 10 μM substrate; read-out: hCat B Ki
Experimental: as §1, §2, §3

[4] = target: human cathepsin L (Homo sapiens, UniProt P07711); assay: cathepsin L inhibition assay, fluorogenic substrate Cbz-Phe-Arg-AMC; details: Table 2; enzyme from human liver tissue, 5 μM substrate; read-out: hCat L Ki
Experimental: as §1, §2, §3

[5] = target: T1, rat cathepsin K (Rattus norvegicus, UniProt O35186); assay: cathepsin K inhibition assay, fluorogenic substrate Cbz-Phe-Arg-AMC, progress curve method; details: Table 2; rat recombinant enzyme, 10 μM substrate; read-out: rCat K Ki
T1 construct: The proform of cathepsin K was converted to mature cathepsin K by brief exposure to pH 4; made in house; host or cells: baculovirus; Trichoplusia ni High Five cells (virus raised in Sf-9)
T1 sequence (O35186 115-329): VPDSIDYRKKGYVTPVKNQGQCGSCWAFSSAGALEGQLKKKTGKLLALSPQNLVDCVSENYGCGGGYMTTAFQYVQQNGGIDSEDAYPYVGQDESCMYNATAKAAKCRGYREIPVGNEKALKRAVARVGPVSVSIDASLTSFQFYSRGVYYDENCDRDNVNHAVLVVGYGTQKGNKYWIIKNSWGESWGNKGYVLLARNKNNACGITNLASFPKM
Experimental: as §1
as §2, with “H). […]” for “H).”
Protein Purification: Media (human and rat) were filtered through a Whatman 3 filter, and then loaded onto a 25 mL Poros HS II (26 mm×47 mm) cation exchange column equilibrated in 25 mM sodium acetate at pH 5.5 (equilibration buffer). The column was washed until the absorbance reached the baseline value, and then the protein was eluted with a linear gradient from 0-2 M sodium chloride in the equilibration buffer. Column fractions were analyzed by SDS-PAGE, N-terminal sequencing, and mass spectrometry. […]

Chain of human cathepsin V (O60911 114-334): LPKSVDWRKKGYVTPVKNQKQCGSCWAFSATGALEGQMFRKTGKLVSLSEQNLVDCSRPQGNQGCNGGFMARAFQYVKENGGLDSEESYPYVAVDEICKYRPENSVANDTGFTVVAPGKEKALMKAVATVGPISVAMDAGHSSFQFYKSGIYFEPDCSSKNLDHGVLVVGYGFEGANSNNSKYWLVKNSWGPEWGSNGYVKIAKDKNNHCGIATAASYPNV
Chain of human cathepsin L (P07711 114-288 limits assumed): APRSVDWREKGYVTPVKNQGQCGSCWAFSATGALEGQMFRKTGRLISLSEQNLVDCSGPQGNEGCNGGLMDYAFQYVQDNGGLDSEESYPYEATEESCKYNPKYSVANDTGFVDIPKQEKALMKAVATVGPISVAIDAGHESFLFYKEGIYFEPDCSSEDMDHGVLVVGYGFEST
Chain of human cathepsin L (P07711 292-333 limits assumed): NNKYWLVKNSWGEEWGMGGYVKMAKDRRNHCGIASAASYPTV
Chain of human cathepsin S (P25774 115-331): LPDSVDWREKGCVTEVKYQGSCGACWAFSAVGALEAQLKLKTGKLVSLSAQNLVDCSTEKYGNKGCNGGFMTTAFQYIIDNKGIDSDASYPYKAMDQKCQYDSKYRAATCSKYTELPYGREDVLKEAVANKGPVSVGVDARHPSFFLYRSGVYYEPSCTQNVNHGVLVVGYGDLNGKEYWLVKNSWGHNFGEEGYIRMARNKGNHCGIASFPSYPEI

Ki [1] [nM]	Ki [2] [nM]	Ki [3] [nM]	Ki [4] [nM]	Ki [5] [nM]	SMILES
10 to 100	10 to 100	> 1000	10 to 100	10 to 100	CCCC[C@H](NC(=O)OC1(c2nc3ccccc3s2)CCCC1)C(=O)C(=O)Nc1ccn[nH]1 [Example 17, 1-(1,3-Benzothiazol-2-yl)cyclopentyl(1S)-1-[oxo(1H-pyrazol-3-ylamino)acetyl]pentylcarbamate]
1 to 10	1 to 10	100 to 1000	10 to 100	10 to 100	CCCC[C@H](NC(=O)OCC1(Cc2ccc(F)cc2)CCC1)C(=O)C(=O)Nc1n[nH]c2cc(Cl)ccc12 [Example 15, [1-(4-fluorobenzyl)cyclobutyl]methyl(1S)-1-[[(6-chloro-1H-indazol-3-yl)amino](oxo)acetyl]pentylcarbamate]
> 1000	100 to 1000	> 1000	> 1000	> 1000	CCCC[C@H](NC(=O)OC1(Cc2ccccc2)CCCC1)C(=O)C(=O)N[C@@H](C)C(=O)OCc1ccccc1 [Example 3, Benzyl (2S)-2-{[(3S)-3-({[(1-benzylcyclopentyl)oxy]carbonyl}amino)-2-oxoheptanoyl]amino}propanoate]
